Several values for one entry are separate records, joined by “and”; a condition that tells them apart may be missing. Equal entries are not always repeated. Where two headings read alike, the source gives them in different places.
What was measured:
[1] = system: HDMB03 (HDMBO3) group 3 medulloblastoma cells; test: CellTiter-Glo dose-response growth assay; format: cell-based; conditions: Homo sapiens, HD-MB03; HDMBO3 G3MB cell growth; read-out: IC50 (nM) HDMBO3
Description: CellTiter-Glo assay was performed as per the manufacturer’s instructions, at the noted timepoint after compound treatment or plating. For Kelly, TE617T, RhJT, NCIH2122, NCIH650 and 143B, 500 cells were plated in normal growth media per well in a 384-well plate (Corning). HDMB03 and MB002 cells were plated in growth media at 500 cells/well in a 384-well plate. […] Cells were incubated for the noted timepoints prior to performing CellTiter-Glo assay as per the manufacturer’s instructions, and reading plates on an Envision 2104 microplate reader.

BRD4-BD1 (BRD4-1) = biological target: T1, BRD4-BD1 (BRD4-1) (Homo sapiens, UniProt O60885); test: Differential scanning fluorimetry (DSF) thermal shift; format: binding; conditions: DSF; for ∆Tm (°C) BRD4-1: 5 μM protein, 100 μM compound, three independent experiments, average ± SD; for ΔTm (°C) BRD4-BD1: Figure 3A
T1 construct: BRD4-BD1 (residues 44-168); 6xHis (cleaved yes); host or cells: E. coli BL21 (DE3) RIL
Description: (§1) At OD600 of 0.6, the culture was cooled down to 18 °C and induced with 0.1 mM IPTG. After 18 h growth, the culture was harvested by centrifugation at 6000 × g for 25 min and stored at -80 °C. Harvested cell pellets were re-suspended in 50 mM Na/K phosphate buffer (pH 7.4) containing 100 mM NaCl, 40 mM imidazole, 0.01% w/v lysozyme and 0.01% v/v Triton X-100 at 4 °C for 1 h, subjected to sonication and the lysate was clarified by centrifugation (30,000 × g for 45 min at 4 °C). Proteins were purified by FPLC at 4 °C using columns and chromatography materials from GE Healthcare. […] Proteins were purified to homogeneity by size exclusion chromatography using Superdex 75 equilibrated with elution buffer (50 mM HEPES pH 7.5, 100 mM NaCl, 2 mM DTT). All BRDs eluted as monomeric protein and were of crystallization grade quality (>95% purity as judged by SDS-PAGE). Pool fractions were combined, concentrated to 10–12 mg/ml, and aliquots were flash-frozen in liquid N2 and stored at −80 °C.
(§2) DSF experiments were performed with an Applied Biosystem StepOnePlus real-time PCR system (Thermo Fisher Scientific) using 96-well format plates, assayed in quadruplicate. For thermal shift determination, 5 μM protein was mixed with 100 μM compound in 50 mM HEPES, pH 7.5, 150 mM NaCl, 2 mM DTT, 2% DMSO, 5X SYPRO Orange (Thermo Fisher Scientific) in 20 μL reaction volumes. Reaction mixtures were heated from 25 to 95 °C at 1 °C/min with fluorescence readings every 0.5 °C at 610 nm. The observed thermal shift (ΔTm) was recorded as the difference between the Tm of sample and DMSO reference wells.

EP300 bromodomain = biological target: T2, EP300 bromodomain (Homo sapiens, UniProt Q09472); test: as above; format: binding; conditions: DSF; for ∆Tm (°C) EP300: 5 μM protein, 100 μM compound, three independent experiments, average ± SD; for ΔTm (°C) EP300: Figure 3B
T2 construct: 6xHis (cleaved yes); host or cells: E. coli BL21 (DE3) RIL
T2 sequence (Q09472 1048-1161): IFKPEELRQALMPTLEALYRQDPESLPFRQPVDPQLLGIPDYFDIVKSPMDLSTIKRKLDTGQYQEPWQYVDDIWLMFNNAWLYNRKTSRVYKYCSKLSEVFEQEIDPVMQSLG
Description: as §1, §2

CBP bromodomain [2] = biological target: T3, CBP bromodomain (Homo sapiens, UniProt Q92793); test: as above; format: binding; conditions: for ∆Tm (°C) CBP / ΔTm (°C) CBP: DSF; for ∆Tm (°C) CBP: 5 μM protein, 100 μM compound, three independent experiments, average ± SD; for DSF ΔTm (°C): Figure 3C, DSF (values equal CBP column)
T3 construct: CBP (residues 1081-1197); 6xHis (cleaved yes); host or cells: E. coli BL21 (DE3) RIL
T3 sequence (Q92793 1081-1197): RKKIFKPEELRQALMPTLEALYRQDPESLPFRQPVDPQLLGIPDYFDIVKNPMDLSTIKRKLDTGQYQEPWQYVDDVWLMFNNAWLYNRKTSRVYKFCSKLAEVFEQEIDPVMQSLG
Description: as §1, with “After” for “At OD600 of 0.6, the culture was cooled down to 18 °C and induced with 0.1 mM IPTG. After”, “All BRDs eluted as monomeric protein and were of crystallization grade quality (>95% purity as judged by SDS-PAGE).” left out
(§3) DSF experiments were performed with an Applied Biosystem StepOnePlus real-time PCR system (Thermo Fisher Scientific) using 96-well format plates, assayed in quadruplicate. For thermal shift determination, 5 μM protein was mixed with 100 μM compound in 50 mM HEPES, pH 7.5, 150 mM NaCl, 2 mM DTT, 2% DMSO, 5X SYPRO Orange (Thermo Fisher Scientific) in 20 μL reaction volumes.

CBP bromodomain [3] = test: as above; format: binding; conditions: ΔTm (CBP)/ΔTm(BRD4)
Description: as §1, with “After” for “At OD600 of 0.6, the culture was cooled down to 18 °C and induced with 0.1 mM IPTG. After”, “All BRDs eluted as monomeric protein and were of crystallization grade quality (>95% purity as judged by SDS-PAGE).” left out
as §3

[4] = biological target: GFP-tagged CBP bromodomain (Homo sapiens, UniProt Q92793); test: Microscale thermophoresis (MST); format: binding; conditions: for Response (Dose Response Curve): MST raw response
GFP-tagged CBP bromodomain, sequence (Q92793 1085-1192 limits assumed): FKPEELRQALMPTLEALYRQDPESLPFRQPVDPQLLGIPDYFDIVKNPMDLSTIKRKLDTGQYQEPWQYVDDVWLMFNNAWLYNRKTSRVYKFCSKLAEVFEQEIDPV
Description: MST experiments were performed in a Monolith NT.115 Pico instrument (NanoTemper Technologies) following published procedures. […] MST traces were recorded using standard parameters: 5 s MST power off, 30 s MST power on and 5 s MST power off. Measurements were taken at -1-0 s (cold region) and 10 s (hot region) and data were analyzed using the NTAnalysis software.

[5] = three independent MST experiments, average ± SD, read-out: Kd (nM) CBP

IC50 [1] [nM] | ∆Tm (°C) BRD4-1 (BRD4-BD1 (BRD4-1)) [°C] | ΔTm (°C) BRD4-BD1 (BRD4-BD1 (BRD4-1)) [°C] | ∆Tm (°C) EP300 (EP300 bromodomain) [°C] | ΔTm (°C) EP300 (EP300 bromodomain) [°C] | ∆Tm (°C) CBP (CBP bromodomain [2]) [°C] | ΔTm (°C) CBP (CBP bromodomain [2]; Figure 3A, CBP bromodomain) [°C] | ΔTm (°C) CBP (CBP bromodomain [2]; Figure 3B, CBP) [°C] | DSF ΔTm (°C) (CBP bromodomain [2]) | Kd [4, 5] | Compound | Ratio CBP/BRD4 of ∆Tm (CBP bromodomain [3]) | further results
452 ± 217 | 6.9 ± 0.23 | 6.9 | 13.5 ± 0.89 | 13.5 | 15.5 ± 0.14 | 15.5 | 15.5 | 15.5 | 17 nM and 16.9 nM | COC1CCC(n2c(C3CCCC(=O)N3c3ccc4c(c3)OCCO4)nc3cc(-c4c(C)noc4C)ccc32)CC1 (stereo not shown) [Compound 7] | 2.2 | Kd ([4]; MO.Affinity Analysis export, single runs, target clGFP-CBPBRD 5e-8, unit inferred, read-out: Kd (fit result of individual MST run)): 15.5 nM and 27.7 nM and 7.4 nM
108 ± 25 | 5.5 ± 0.17 | 5.5 | 14.8 ± 0.45 | 14.8 | 14.6 ± 0.16 | 14.6 | 14.6 | 14.6 | 31.4 ± 14.2 nM | COC1CCC(n2c(C3CCCC(=O)N3c3ccccc3)nc3cc(-c4c(C)noc4C)ccc32)CC1 (stereo not shown) [Compound 5] | 2.7 | Response (Dose Response Curve) ([4]; Dose 1.52588e-10, single replicate run, listed as iCBP-5): 914.717 and 915.838; Response (Dose Response Curve) ([4]; Dose 3.05176e-10, single replicate run, listed as iCBP-5): 915.243 and 914.96; Response (Dose Response Curve) ([4]; Dose 6.10352e-10, single replicate run, listed as iCBP-5): 914.396 and 915.476; Response (Dose Response Curve) ([4]; Dose 1.2207e-9, single replicate run, listed as iCBP-5): 915.983 and 915.524; Response (Dose Response Curve) ([4]; Dose 2.44141e-9, single replicate run, listed as iCBP-5): 915.86 and 916.029; Response (Dose Response Curve) ([4]; Dose 4.88281e-9, single replicate run, listed as iCBP-5): 914.611 and 915.107; Response (Dose Response Curve) ([4]; Dose 9.76563e-9, single replicate run, listed as iCBP-5): 914.911 and 914.67; Response (Dose Response Curve) ([4]; Dose 1.95313e-8, single replicate run, listed as iCBP-5): 915.602 and 914.588; Response (Dose Response Curve) ([4]; Dose 3.90625e-8, single replicate run, listed as iCBP-5): 913.799 and 914.854; Response (Dose Response Curve) ([4]; Dose 7.8125e-8, single replicate run, listed as iCBP-5): 913.08 and 913.563; Response (Dose Response Curve) ([4]; Dose 1.5625e-7, single replicate run, listed as iCBP-5): 911.965 and 911.667; Response (Dose Response Curve) ([4]; Dose 3.125e-7, single replicate run, listed as iCBP-5): 909.591 and 910.599; Response (Dose Response Curve) ([4]; Dose 6.25e-7, single replicate run, listed as iCBP-5): 911.215 and 910.906; Response (Dose Response Curve) ([4]; Dose 1.25e-6, single replicate run, listed as iCBP-5): 911.169 and 911.287; Response (Dose Response Curve) ([4]; Dose 2.5e-6, single replicate run, listed as iCBP-5): 914.21 and 911.877; Response (Dose Response Curve) ([4]; Dose 5e-6, single replicate run, listed as iCBP-5): 912.484 and 912.12; Kd ([4]; MST, single replicate run, target clGFP-CBPBRD, TargetConcentration 5e-8, MST-Power Medium, unit inferred, read-out: Kd (Fit Results, Fit Model: Kd)): 16.1 nM and 33.7 nM; Bound (Fit Results) ([4]; fitted MST response of bound state, single replicate run, target clGFP-CBPBRD 5e-8, listed as iCBP-5): 911.766 and 911.236; Unbound (Fit Results) ([4]; fitted MST response of unbound state, single replicate run, target clGFP-CBPBRD 5e-8, listed as iCBP-5): 915.376 and 915.584; loss of binding affinity (CBP) ([4]; relative to CCS1477): ~ 10 fold
